From the supplement of paper PMC10307832

How the values were obtained:
Test in all cases: relative viability (nuclei count vs DMSO), 5 days (fraction); higher = more cells survive
[1] = compound: CN(C)CC1=CC(=CC=C1)N=C(C2=CC=CC=C2)C3=C(NC4=C3C=CC(=C4)C(=O)N(C)C)O + CCNC(=O)c1noc(-c2cc(C(C)C)c(O)cc2O)c1-c1ccc(CN2CCOCC2)cc1 [Luminespib] (partner 0.01 µM)
In short: (§1)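 The day after seeding in 1536-well plates, lung cancer cell lines were treated by pin tool with a single drug, or with a fixed anchor-drug dose together with five library-drug doses (not always all listed) in √10 steps. After 5 days, a combined fix-and-stain solution (final 0.05% Triton X-100, 1% formaldehyde, 1 ug/ml Hoechst) was added. Nuclei counted on 4× images gave relative viability as treated counts over vehicle counts, reported as the median of duplicate plates.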

[2] = compound: CN(C)CC1=CC(=CC=C1)N=C(C2=CC=CC=C2)C3=C(NC4=C3C=CC(=C4)C(=O)N(C)C)O + COc1cc2c(Oc3ccc(NC(=O)C4(C(=O)Nc5ccc(F)cc5)CC4)cc3F)ccnc2cc1OCCCN1CCOCC1 [Foretinib] (partner 0.25 µM)
In short: as §1

[3] = compound: CN(C)CC1=CC(=CC=C1)N=C(C2=CC=CC=C2)C3=C(NC4=C3C=CC(=C4)C(=O)N(C)C)O + Cc1cc(Nc2cc(N3CCN(C)CC3)nc(Sc3ccc(NC(=O)C4CC4)cc3)n2)n[nH]1 [Tozasertib] (partner 0.1 µM)
In short: as §1

[4] = compound: CN(C)CC1=CC(=CC=C1)N=C(C2=CC=CC=C2)C3=C(NC4=C3C=CC(=C4)C(=O)N(C)C)O + NC(=O)Nc1cc(-c2cccc(F)c2)sc1C(=O)N[C@H]1CCCNC1 [AZD7762] (partner 0.2 µM)
In short: as §1

Cell Line NCI-H1975 has a relative viability ([1]; first compound 0.08 µM) of 0.22, a relative viability ([1]; first compound 0.253 µM) of 0.197 and a relative viability ([1]; first compound 0.8 µM) of 0.0911. The relative viability ([1]; first compound 2.53 µM) was 0.324, the relative viability ([1]; first compound 8 µM) was 0.161 and the relative viability ([2]; first compound 0.08 µM) was 0.863. It also gave a relative viability ([2]; first compound 0.253 µM) of 0.984, a relative viability ([2]; first compound 0.8 µM) of 0.888 and a relative viability ([2]; first compound 2.53 µM) of 0.88. For the same cell line, the relative viability ([2]; first compound 8 µM) was 0.78, the relative viability ([3]; first compound 0.08 µM) was 0.807 and the relative viability ([3]; first compound 0.253 µM) was 0.785. For the same cell line, the relative viability ([3]; first compound 0.8 µM) was 0.736, the relative viability ([3]; first compound 2.53 µM) was 0.757 and the relative viability ([3]; first compound 8 µM) was 0.708. It also gave a relative viability ([4]; first compound 0.08 µM) of 0.756, a relative viability ([4]; first compound 0.253 µM) of 0.761 and a relative viability ([4]; first compound 0.8 µM) of 0.68. The relative viability ([4]; first compound 2.53 µM) was 0.692 and the relative viability ([4]; first compound 8 µM) was 0.707.

NCI-H1993 gave a relative viability ([1]; first compound 0.08 µM) of 0.817, a relative viability ([1]; first compound 0.253 µM) of 0.796 and a relative viability ([1]; first compound 0.8 µM) of 0.748. The relative viability ([1]; first compound 2.53 µM) was 0.939, the relative viability ([1]; first compound 8 µM) was 0.924 and the relative viability ([2]; first compound 0.08 µM) was 0.721. It also gave a relative viability ([2]; first compound 0.253 µM) of 0.811, a relative viability ([2]; first compound 0.8 µM) of 0.81 and a relative viability ([2]; first compound 2.53 µM) of 0.824. It also gave a relative viability ([2]; first compound 8 µM) of 0.935, a relative viability ([3]; first compound 0.08 µM) of 0.623 and a relative viability ([3]; first compound 0.253 µM) of 0.525. The relative viability ([3]; first compound 0.8 µM) was 0.524, the relative viability ([3]; first compound 2.53 µM) was 0.584 and the relative viability ([3]; first compound 8 µM) was 0.646. It also gave a relative viability ([4]; first compound 0.08 µM) of 0.59, a relative viability ([4]; first compound 0.253 µM) of 0.705 and a relative viability ([4]; first compound 2.53 µM) of 0.937. It also gave a relative viability ([4]; first compound 8 µM) of 0.877.

In the case of NCI-H2085, the relative viability ([1]; first compound 0.08 µM) is reported as 0.591, the relative viability ([1]; first compound 0.253 µM) is reported as 0.533 and the relative viability ([1]; first compound 0.8 µM) is reported as 0.477. For the same cell line, the relative viability ([1]; first compound 2.53 µM) was 0.527, the relative viability ([1]; first compound 8 µM) was 0.404 and the relative viability ([2]; first compound 0.08 µM) was 1. It also gave a relative viability ([2]; first compound 0.253 µM) of 0.865, a relative viability ([2]; first compound 0.8 µM) of 1.15 and a relative viability ([2]; first compound 2.53 µM) of 1.13. For the same cell line, the relative viability ([2]; first compound 8 µM) was 0.954, the relative viability ([3]; first compound 0.08 µM) was 0.862 and the relative viability ([3]; first compound 0.253 µM) was 0.901. For the same cell line, the relative viability ([3]; first compound 0.8 µM) was 0.793, the relative viability ([3]; first compound 2.53 µM) was 0.781 and the relative viability ([3]; first compound 8 µM) was 0.829. It also gave a relative viability ([4]; first compound 0.08 µM) of 1.03, a relative viability ([4]; first compound 0.253 µM) of 0.978 and a relative viability ([4]; first compound 0.8 µM) of 0.995. For the same cell line, the relative viability ([4]; first compound 2.53 µM) was 0.988 and the relative viability ([4]; first compound 8 µM) was 0.969.

With NCI-H2087 the relative viability ([1]; first compound 0.08 µM) was 0.164, the relative viability ([1]; first compound 0.253 µM) was 0.197 and the relative viability ([1]; first compound 0.8 µM) was 0.232. The relative viability ([1]; first compound 2.53 µM) was 0.167, the relative viability ([1]; first compound 8 µM) was 0.172 and the relative viability ([2]; first compound 0.08 µM) was 1. The relative viability ([2]; first compound 0.253 µM) was 1.07, the relative viability ([2]; first compound 0.8 µM) was 1.19 and the relative viability ([2]; first compound 2.53 µM) was 1.09. The relative viability ([2]; first compound 8 µM) was 0.955, the relative viability ([3]; first compound 0.08 µM) was 0.242 and the relative viability ([3]; first compound 0.253 µM) was 0.233. It also gave a relative viability ([3]; first compound 0.8 µM) of 0.265, a relative viability ([3]; first compound 2.53 µM) of 0.27 and a relative viability ([3]; first compound 8 µM) of 0.233. For the same cell line, the relative viability ([4]; first compound 0.08 µM) was 1.13, the relative viability ([4]; first compound 0.253 µM) was 1.28 and the relative viability ([4]; first compound 0.8 µM) was 1.36. For the same cell line, the relative viability ([4]; first compound 2.53 µM) was 1.45 and the relative viability ([4]; first compound 8 µM) was 1.33.

In the case of NCI-H2126, the relative viability ([1]; first compound 0.08 µM) is reported as 0.993, the relative viability ([1]; first compound 0.253 µM) is reported as 0.858 and the relative viability ([1]; first compound 0.8 µM) is reported as 0.937. For the same cell line, the relative viability ([1]; first compound 2.53 µM) was 0.883, the relative viability ([1]; first compound 8 µM) was 0.886 and the relative viability ([2]; first compound 0.08 µM) was 1.1. It also gave a relative viability ([2]; first compound 0.253 µM) of 1.13, a relative viability ([2]; first compound 0.8 µM) of 1.17 and a relative viability ([2]; first compound 2.53 µM) of 1.16. For the same cell line, the relative viability ([2]; first compound 8 µM) was 1.02, the relative viability ([3]; first compound 0.08 µM) was 0.961 and the relative viability ([3]; first compound 0.253 µM) was 0.849. For the same cell line, the relative viability ([3]; first compound 0.8 µM) was 0.856, the relative viability ([3]; first compound 2.53 µM) was 0.825 and the relative viability ([3]; first compound 8 µM) was 0.837. The relative viability ([4]; first compound 0.08 µM) was 0.974, the relative viability ([4]; first compound 0.253 µM) was 0.96 and the relative viability ([4]; first compound 0.8 µM) was 0.931. It also gave a relative viability ([4]; first compound 2.53 µM) of 0.943 and a relative viability ([4]; first compound 8 µM) of 0.976.

NCI-H2170 showed a relative viability ([1]; first compound 0.08 µM) of 0.791, a relative viability ([1]; first compound 0.253 µM) of 0.566 and a relative viability ([1]; first compound 0.8 µM) of 0.53. The relative viability ([1]; first compound 2.53 µM) was 0.667, the relative viability ([1]; first compound 8 µM) was 0.549 and the relative viability ([2]; first compound 0.08 µM) was 0.99. It also gave a relative viability ([2]; first compound 0.253 µM) of 1.01, a relative viability ([2]; first compound 0.8 µM) of 1.03 and a relative viability ([2]; first compound 2.53 µM) of 0.966. It also gave a relative viability ([2]; first compound 8 µM) of 0.857, a relative viability ([3]; first compound 0.08 µM) of 0.749 and a relative viability ([3]; first compound 0.253 µM) of 0.8. The relative viability ([3]; first compound 0.8 µM) was 0.586, the relative viability ([3]; first compound 2.53 µM) was 0.679 and the relative viability ([3]; first compound 8 µM) was 0.609. The relative viability ([4]; first compound 0.08 µM) was 0.921, the relative viability ([4]; first compound 0.253 µM) was 0.88 and the relative viability ([4]; first compound 0.8 µM) was 0.589. For the same cell line, the relative viability ([4]; first compound 2.53 µM) was 0.867 and the relative viability ([4]; first compound 8 µM) was 0.682.

In the case of NCI-H2342, the relative viability ([1]; first compound 0.08 µM) is reported as 0.775, the relative viability ([1]; first compound 0.253 µM) is reported as 0.597 and the relative viability ([1]; first compound 0.8 µM) is reported as 0.71. For the same cell line, the relative viability ([1]; first compound 2.53 µM) was 0.771, the relative viability ([1]; first compound 8 µM) was 0.871 and the relative viability ([2]; first compound 0.08 µM) was 1.08. The relative viability ([2]; first compound 0.253 µM) was 1.06, the relative viability ([2]; first compound 0.8 µM) was 0.979 and the relative viability ([2]; first compound 2.53 µM) was 1.17. It also gave a relative viability ([2]; first compound 8 µM) of 1.05, a relative viability ([3]; first compound 0.08 µM) of 0.497 and a relative viability ([3]; first compound 0.253 µM) of 0.601. The relative viability ([3]; first compound 0.8 µM) was 0.549, the relative viability ([3]; first compound 2.53 µM) was 0.45 and the relative viability ([3]; first compound 8 µM) was 0.613. For the same cell line, the relative viability ([4]; first compound 0.08 µM) was 0.428, the relative viability ([4]; first compound 0.253 µM) was 0.582 and the relative viability ([4]; first compound 0.8 µM) was 0.471. It also gave a relative viability ([4]; first compound 2.53 µM) of 0.461 and a relative viability ([4]; first compound 8 µM) of 0.472.

With NCI-H2347 the relative viability ([1]; first compound 0.08 µM) was 0.355, the relative viability ([1]; first compound 0.253 µM) was 0.444 and the relative viability ([1]; first compound 0.8 µM) was 0.34. For the same cell line, the relative viability ([1]; first compound 2.53 µM) was 0.383, the relative viability ([1]; first compound 8 µM) was 0.298 and the relative viability ([2]; first compound 0.08 µM) was 0.969. For the same cell line, the relative viability ([2]; first compound 0.253 µM) was 1.02, the relative viability ([2]; first compound 0.8 µM) was 0.809 and the relative viability ([2]; first compound 2.53 µM) was 1.11. The relative viability ([2]; first compound 8 µM) was 1, the relative viability ([3]; first compound 0.08 µM) was 0.615 and the relative viability ([3]; first compound 0.253 µM) was 0.522. For the same cell line, the relative viability ([3]; first compound 0.8 µM) was 0.522, the relative viability ([3]; first compound 2.53 µM) was 0.56 and the relative viability ([3]; first compound 8 µM) was 0.603. For the same cell line, the relative viability ([4]; first compound 0.08 µM) was 0.898, the relative viability ([4]; first compound 0.253 µM) was 0.647 and the relative viability ([4]; first compound 0.8 µM) was 0.7. It also gave a relative viability ([4]; first compound 2.53 µM) of 0.719 and a relative viability ([4]; first compound 8 µM) of 0.734.
